Assay results from patent US20220362249A1, “METHODS FOR TREATING […]” (PTC Therapeutics MP, Inc., priority 2019, published 2022).
Where a name gives a salt, the structure may show the parent alone.

Legend:
[1] = Adverse events in patients with PKU on PTC923 or sapropterin dihydrochloride; type: in vivo, human; details: 20 mg/kg
Source text: PTC923 safety was monitored and adverse events (AEs) were coded using the Medical Dictionary for Regulatory Activities (MedDRA®) version 21.0. Treatment-emergent adverse events (TEAEs) were defined as AE that began on or after first dose of study drug. A TEAE was associated with the study treatment currently being received, or the last study treatment before its onset. A treatment-related TEAE was, in the judgment of the investigator possibly, probably or definitely related to treatment. A serious AE (SAE) was defined as resulting in death, life-threatening AE, inpatient hospitalization or prolongation of existing hospitalization, a persistent or significant disability/incapacity or a substantial disruption of the ability to conduct normal life functions, or a congenital anomaly/birth defect.

[2] = tested on: blood Phe; details: standard deviation of 220 μmol/L; cited from earlier work
[3] = tested on: phenylalanine plasma concentrations; details: cited from earlier work
[4] = tested on: blood Phe; test: Reduction of blood Phe in patients with PKU, randomized crossover of PTC923 vs sapropterin dihydrochloride; type: in vivo, human; details: for Mean (SD) blood Phe, At baseline: 20 mg/kg period, Day 1 pre-dose; for Least squares mean (SE) change from baseline in blood Phe / Mean (SD) blood Phe, Change / Mean (SD) blood Phe, On treatment: 20 mg/kg/day oral, 7 days; for Mean (SD) blood Phe, On treatment: mean of days 3, 5 and 7
Protocol: Following screening for eligibility, a 7-day run-in period commenced. Patients then received 7 days of once-daily oral treatment with either PTC923 20 mg/kg/day (“low dose”), or PTC923 60 mg/kg/day or sapropterin dihydrochloride, in a random order. PTC923 (formerly CNSA-001) is oral sepiapterin. Each patient was randomized to one of six treatment sequences (FIG. 2). The randomization in six different treatment sequences was intended to minimize carry over effect, treatment period effect, patient fatigue, and natural fluctuations in blood Phe levels. A 7-day washout period separated each active treatment period. Patients were asked to maintain their usual pre-study diet, including consumption of amino acid mixtures if prescribed, and were monitored throughout the study by a metabolic dietician.
Blood samples for measurement of Phe were taken on 7, 5, 3, and 1 days before randomization. During treatment periods, blood was taken pre-dose for day 1 and post-dose for days 3, 5 and 7. During the washout periods, blood was taken for measurement of Phe on days 1, 3, 5, and 7. All samples were taken under fasting conditions or no earlier than 3 hours following a meal and at the same time of day. Blood Phe was measured using a validated LC-MS-MS technique of dried blood sampling via Volumetric Absorptive Microsampling (VAMS®) using Mitra® 4-sampler clamshells, at a central bioanalytical laboratory (Agilex Biolabs Pty Ltd).
The main objective of the study was to assess the efficacy of PTC923 measured as the mean blood Phe change from baseline. The efficacy population consisted of all patients who were randomized and had blood Phe measurements before treatment and at days 3, 5 and 7 of treatment from at least one treatment period. The safety population consisted of all patients who were randomized and who received any dose of study treatment. The sample size calculation was based on an all-comers, placebo-controlled regulatory study of sapropterin with an observed mean decrease in blood Phe of 99 μmol/L and standard deviation of 220 μmol/L, and assumed a true mean decrease in blood Phe of 300 μmol/L with 80% power utilizing a 2-sided α of 0.05.
Response to PTC923 was evaluated by measuring the mean change from baseline in blood Phe (calculated as the mean of measurements at days 3, 5 and 7 of each treatment period). Day 1 pre-dose blood Phe concentrations for each treatment period served as the individual patient specific baseline for that period.
The change from baseline in blood Phe of each treatment period was modelled using a linear mixed model for repeated measures (MMRM). The efficacy model included fixed effects for baseline for each treatment period, treatment group, sequence, period, and a random subject effect within each sequence, with a first order autoregressive AR (1) covariance structure. No unplanned covariates were included.
Pairwise comparisons in changes from baseline in Phe were performed between each PTC923 treatment and sapropterin treatment by calculating the least squares means with Dunnet's method of adjustment for multiple comparisons. The estimated change in blood Phe levels, their standard errors (SE) and associated p-values were calculated for each pairwise comparison. Dunnet's method of adjustment was used to account for the multiple comparisons of the test groups against the control group. This adjustment ensured that the overall Type I error rate under the null hypothesis was maintained despite multiple test groups being compared to the single control group.
The overall mean changes in blood Phe for each treatment were calculated and the standard deviations (SD) were determined.
A prespecified sensitivity analysis excluded treatment periods where baseline Phe was <300 μmol/L and a responder analysis looked at patients with baselines ≥300 μmol/L who responded to sapropterin and/or to PTC923 treatment by ≥20% reduction.

[5] = Subjects with classical PKU (N = 11)

## C[C@H](O)[C@H](O)[C@H]1CNc2nc(N)[nH]c(=O)c2N1 [sapropterin dihydrochloride, reference compound]
[1]
  Patients reporting any adverse event: 21%
  Patients reporting severe AE: 0%
  Patients reporting treatment-related AE: 0%
[1]; transient
  Headache (all-cause AE): 4%
[2]
  Observed mean decrease in blood Phe: 99 µmol/L
[3]
  Classical PKU subjects that respond to treatment (historically): about 10%
[4]; 20 mg/kg, n of 24
  Proportion of patients achieving blood Phe <360 μmol/L: 42%
[4]; All subjects (N = 24)
  Mean (SD) blood Phe, At baseline: 710.4 (370.0) μmol/L
  Least squares mean (SE) change from baseline in blood Phe: −91.5 (41.7) μmol/L
  Mean (SD) blood Phe, Change: −90.8 (226.9) μmol/L
  Mean (SD) blood Phe, On treatment: 619.5 (475.3) μmol/L
[4]; Day 3, 20 mg/kg
  Least squares mean change from baseline in blood Phe to first Phe measurement (Day 3): -72.3 µmol/L
[4]; [5]
  Mean (SD) blood Phe, At baseline: 903.5 (422.5) μmol/L
  Mean (SD) blood Phe, Change: 10.7 (221.6) μmol/L
  Mean (SD) blood Phe, On treatment: 914.2 (538.7) μmol/L
[4]; Subjects with classical PKU (N = 11), dihydrochloride, 20 mg/kg/day
  Least squares mean (SE) change from baseline in blood Phe: -2.8 µmol/L
[4]; Subjects with classical PKU (N = 11), listed as Sapropterin dihydrochloride, dihydrochloride, 20 mg/kg/day
  Least squares mean (SE) change from baseline in blood Phe: −2.8 (62.0) μmol/L
[4]; group of 12 responders (Phe reduction ≥20%, baseline ≥300 μmol/L), 20 mg/kg
  Least squares mean change from baseline in blood Phe: -139.70 µmol/L
[4]; non-classical subjects
  Non-classical subjects normalized (blood phenylalanine less than 120 micromole per liter): 15.4%
